Measurements as given in PubChem BioAssay (NCI).
Values joined by “and” are separate entries in the source; they are usually repeats but may differ in a detail not shown here. Equal values may be shown once.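 Growth conditions: 96-well plates. Treatment: test compound, 48 hours, 5 concentrations. Analysis: linear interpolation between bracketing concentrations; unreached endpoints set to highest concentration. GI50: concentration for 50% inhibition of growth. TGI denotes the concentration required for complete inhibition of growth.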

Columns and labels:
Assay in all cases: DTP human tumour cell line panel, 48 h
CAKI-1 renal = test system: CAKI-1 renal
CCRF-CEM leukemia = test system: CCRF-CEM leukemia
HL-60(TB) leukemia = test system: HL-60(TB) leukemia
K-562 leukemia = test system: K-562 leukemia
KM12 colon = test system: KM12 colon
MALME-3M melanoma = test system: MALME-3M melanoma
SF-268 CNS = test system: SF-268 CNS
SW-620 colon = test system: SW-620 colon
SK-MEL-2 melanoma = test system: SK-MEL-2 melanoma
DU-145 prostate = test system: DU-145 prostate

Row | Structure (SMILES) | TGI (CAKI-1 renal) [µM] | TGI (CCRF-CEM leukemia) | TGI (HL-60(TB) leukemia) [µM] | TGI (K-562 leukemia) [µM] | TGI (KM12 colon) [µM] | TGI (MALME-3M melanoma) [µM] | TGI (SF-268 CNS) [µM] | TGI (SW-620 colon) [µM] | TGI (SK-MEL-2 melanoma) [µM] | GI50 (CAKI-1 renal) | GI50 (DU-145 prostate) [µM] | TGI (DU-145 prostate) [µM] | GI50 (HL-60(TB) leukemia) [µM] | GI50 (MALME-3M melanoma) [µM] | GI50 (SF-268 CNS) [µM] | GI50 (SK-MEL-2 melanoma) [µM] | GI50 (CCRF-CEM leukemia) [µM] | GI50 (K-562 leukemia) [µM] | GI50 (KM12 colon) [µM] | GI50 (SW-620 colon) [µM]
1 | CC1=C(C(=O)Nc2c(C)cccc2C)C(c2ccc3c(c2)OCO3)C(C(=O)Nc2c(C)cccc2C)=C(C)N1 | 59 | 41.9 µM | 56.1 | 73 | 29.1 | 45.7 | 48.5 | 36.5 |  |  |  |  |  |  |  |  |  |  |  | 
2 | COC(=O)C1CC2(CC3=C1CCCC3)OCCO2 (stereo not given) | > 100 | > 100 µM | > 100 | > 100 | > 100 | > 100 | > 100 | > 100 | > 100 |  |  |  |  |  |  |  |  |  |  | 
3 | O=c1oc2cc(OS(=O)(=O)c3ccc(F)cc3)ccc2c2c1CCCCC2 | > 100 |  | > 100 |  |  | > 100 | > 100 |  | > 100 | > 100 µM | > 100 | > 100 | > 100 | > 100 | > 100 | > 100 |  |  |  | 
4 | Cc1cc2c(c(C#N)c1C)NC(=O)CCC2=O | > 100 | > 100 µM | > 100 | > 100 | > 100 |  |  | > 100 | > 100 |  |  |  |  |  |  |  |  |  |  | 
5 | O=C(O)CSc1n[nH]c(-c2ccc(O)cc2)n1 | > 100 | > 100 µM | > 100 | > 100 | > 100 | > 100 | > 100 | > 100 | > 100 |  |  |  |  |  |  |  |  |  |  | 
6 | Nn1c(-c2ccccc2)nc2ccc(Br)cc2c1=O | > 100 | 76.4 µM | 76.8 | > 100 | > 100 | > 100 | > 100 | > 100 | > 100 |  |  |  |  |  |  |  |  |  |  | 
7 | Cc1cc(C)nc(NS(=O)(=O)c2ccc(Nc3c4ccccc4nc4c(C(=O)Nc5ccc(S(=O)(=O)N=C(N)N)cc5)ccc(Cl)c34)cc2)n1 | > 100 |  | 54 | > 100 | > 100 | > 100 | 97.2 |  |  |  |  |  |  |  |  |  |  |  |  | 
8 | Cn1c2c(c3ccccc31)CCN(CCCCN1CCc3c(n(C)c4ccccc34)C1=O)C2 | > 100 | > 100 µM | > 100 | > 100 |  | > 100 | > 100 | > 100 | > 100 |  |  |  |  |  |  |  |  |  |  | 
9 | O=C1CC(O)C=C1Nc1ccc(Cl)cc1 (stereo not given) | > 100 | > 100 µM | 95.6 | > 100 | 39.2 | > 100 | > 100 | > 100 | > 100 |  |  |  |  |  |  |  |  |  |  | 
10 | COc1ccc(-c2nc3sc(C)cn3c2/C=C/C(=O)c2cc(OC)c(OC)c(OC)c2)cc1 | > 100 | > 100 µM | 7.48 | > 100 | 6.39 |  | > 100 |  |  | 5.15 µM | 3.69 | > 100 | 2.49 |  | 3.53 |  | 3.06 | 3.13 | 2.69 | 
11 | Cc1nc2c(nc1C)C(=O)c1cc(O)ccc1C2=O | > 100 | > 100 µM | > 67.3 | > 100 | > 100 | 43.7 | > 100 | > 100 | > 100 |  |  |  |  |  |  |  |  |  |  | 
12 | O=C(c1ccccc1)C(C(=O)c1ccccc1)C1(O)C(=O)c2ccccc2C1=O |  | 83 µM | 46.9 | 60.6 | > 100 | 96.6 | > 100 | > 100 | > 100 |  |  |  |  |  |  |  |  |  |  | 
13 | Cn1c(=O)nc2n(-c3ccc(Cl)cc3)c3ccc(Cl)cc3nc-2c1=O | 25.9 | 85.6 µM | 18.9 | 37.4 | 32 |  | 19.7 | 19.2 | 16.9 |  |  |  |  |  |  |  |  |  |  | 
14 | N#CCC(=O)Nc1cccc(C(F)(F)F)c1 | > 100 | > 100 µM | > 100 |  | > 100 | > 100 | > 100 | > 100 | > 100 |  |  |  |  |  |  |  |  |  |  | 
15 | N#Cc1cn(C2OC(CO)C(O)C2O)c2ncnc(N)c12 (stereo not given) |  | 0.216 µM and 0.84 µM and 0.0961 µM |  |  | > 100 |  |  | > 100 |  | 0.0705 µM and 0.045 µM and < 0.01 µM |  |  | 0.045 |  | < 0.01 |  | 0.045 | 0.0175 |  | < 0.0145
16 | COc1cc(CCc2ccc(OCCN(C)C)cc2)cc(OC)c1OC | > 100 | > 100 µM | > 100 | > 100 | > 100 | > 100 | > 100 | > 100 |  |  |  |  |  |  |  |  |  |  |  | 
17 | Nc1ccn(CCOC(=O)c2ccccc2)c(=O)n1 | > 100 | > 100 µM | > 100 | > 100 | > 100 | > 100 | > 100 | > 100 | > 100 |  |  |  |  |  |  |  |  |  |  | 
18 | COc1ccc2c(c1)/C(=C\c1c(C)nc3sc(C)cn13)C(=O)N2C | 4.33 | > 100 µM |  | > 100 | 43.4 | 73.3 | 39 | 18 | > 100 | 1.33 µM | 11 | > 100 |  | 7.09 | 4.62 | 9.57 | 5.46 | 1.83 | 4.87 | 3.25
19 | C=C1C(=O)O[C@H]2[C@H]1CC/C(Cn1cc(CNC(=O)Cc3cn(C(=O)c4ccc(Cl)cc4)c4ccc(OC)cc34)nn1)=C\CC[C@@]1(C)O[C@@H]21 | 2.89 | 2.4 µM |  |  | 7.23 | 3.18 | 3.52 | 2.65 | 4.18 | 1.49 µM | 1.75 | 3.35 |  | 1.62 | 1.7 | 2.01 | 0.384 |  | 2.78 | 0.932
20 | CCOC(=O)[C@@]1(C)C=C2O[C@@H]3OC4(CCCCC4)O[C@@H]3C2=C2C(O)=CC=C(O)[C@]21C(=O)OC | > 68 | > 68 µM | > 68 | > 68 | > 68 | > 68 | > 68 | > 68 | > 68 |  |  |  |  |  |  |  |  |  |  | 
21 | O=C(c1ccccc1)C(c1ccccc1)C1(O)C(=O)Nc2c(Cl)cc(Cl)cc21 (stereo not given) | 40.1 | 49.7 µM | 39.5 | 50.3 | 82.8 | 32.7 | 51.9 | 34.3 | 33 |  |  |  |  |  |  |  |  |  |  | 
22 | CCOC(=O)C(=O)Nc1nc2c(s1)C(=O)c1ccccc1C2=O | 33.5 | 69.8 µM |  | 33.3 | 30.6 | 25.8 | 27.3 | 27.7 | 31.7 |  |  |  |  |  |  |  |  |  |  | 
